In data set [1] the test system is brain. The data set can be described thus: Tissue distribution of 5-halothiophene-2-isopropylamines in Fisher rats. The format is in vivo. To be noted: in words. The source says:
5-HALOTHIOPHENE-2-ISOPROPYLAMINES
Mean Brian. % Dose/gm (Mean Brain:Blood)

For data set [2], the system named is brain. As to conditions: five minutes after administration; versus HIPDM; cited from earlier work.
Data set [3] relates to lungs. To be noted: versus HIPDM; cited from earlier work.

For `CC(N)Cc1ccc([82Br])s1` (stereo not shown) [Br-82, 2-(2-aminopropyl)-5-bromothiophene], in data set [1], the brain retention result was “good brain uptake and retention”; the brain uptake entry is listed as “good brain uptake”.
Turning to `CC(N)Cc1ccc([125I])s1` (stereo not shown) [Compound I-125, 2-(2-aminopropyl)-5-radiohalothiophene], in data set [1], the brain retention entry is recorded as “good retention”, the brain uptake result is on record as “high brain uptake” and the brain-to-blood ratios result is “high brain-to-blood ratios”.
Take `CC(C)NC(C)Cc1ccc(I)cc1` (stereo not shown) [IMP, N-isopropyl-p-iodoamphetamine]: the “amount of activity in the brain relative to HIPDM” value in data set [2] was “almost twice”. The “clearance of the lungs relative to HIPDM” value in data set [3] is given as “faster”.

The record behind these values is patent US4914215A, “Aminopropyl thiophene compounds” (The United States of America as represented by the United …, priority 1989, dated 1990).
